{"source": "patent US20250025520A1", "about": "“MICROBE-BASED MODULATION OF SEROTONIN BIOSYNTHESIS” (The Regents of the University of California, priority 2014, published 2025)", "key": {"[1]": {"test_system": "RIN14B cells", "test": "RIN14B in vitro culture, 5-HT release", "details": "for 5-HT in RIN14B chromaffin cell cultures: α-tocopherol 8 uM, butyrate 100 uM, cholate 75 uM, deoxycholate 25 uM, p-aminobenzoate 1 uM, propionate 100 uM, tyramine 100 uM"}, "[2]": {"test_system": "TPH1 in RIN14B cells", "test": "RIN14B in vitro culture, TPH1 expression by qRT-PCR", "details": "colonic luminal filtrate, or 15 uM ionomycin; relative to vehicle-treated controls"}, "[3]": {"test_system": "colon 5-HT", "test": "Colon 5-HT by ELISA, normalized to total protein", "format": "in vivo, mouse", "details": "for effects of a single rectal injection on raising colon 5-HT levels: time course", "excerpt": "(§1) Blood samples were collected by cardiac puncture and spun through SST vacutainers (Becton Dickinson) for serum separation or PST lithium hepararin vacutainers (Becton Dickinson, Franklin Lakes, NJ) for plasma separation. The entire length of the colon or 1 cm regions of the distal, medial and proximal colon of the small intestine were washed in PBS, flushed with PBS to remove luminal contents, and sonicated on ice in 10 s intervals at 20 mV in ELISA standard buffer supplemented with ascorbic acid (Eagle Biosciences, Nashua, NH). Serotonin levels were detected in sera and supernatant of tissue homogenates by ELISA according to the manufacturer's instructions (Eagle Biosciences, Nashua, NH). Readings from tissue samples were normalized to total protein content as detected by BCA assay (Thermo Pierce). Data compiled across multiple experiments are expressed as 5-HT concentrations normalized to SPF controls within each experiment."}, "[4]": {"test_system": "serum 5-HT", "test": "Serum 5-HT by ELISA", "format": "in vivo, mouse", "excerpt": "as §1"}, "[5]": {"test_system": "TPH1", "test": "Intestinal qRT-PCR, colonic TPH1 expression relative to GAPDH", "format": "in vivo, mouse", "experimental": "The entire length of the mouse colon, or 1 cm regions of the distal, medial and proximal of the mouse small intestine were washed in PBS, flushed with PBS to remove luminal contents, and homogenized in ice-cold Trizol for RNA isolation using the RNeasy Mini Kit with on-column genomic DNA-digest (Qiagen) and cDNA synthesis using iScript (Biorad). qRT-PCR was performed on an ABI 7900 thermocycler using SYBR green master mix with Rox passive reference dye (Roche) and validated primer sets obtained from Primerbank (Harvard)."}, "[6]": {"test_system": "SLC6A4", "test": "Intestinal qRT-PCR, colonic SLC6A4 expression relative to GAPDH", "format": "in vivo, mouse", "details": "Sp-colonized mice, PCPA intrarectally"}, "[7]": {"test_system": "colonic enterochromaffin cells (ECs)", "test": "Immunofluorescence staining of 5-HT and CgA in colon", "format": "in vivo, mouse", "experimental": "(§2) Mouse colon was cut into distal, medial and proximal sections, and 1 cm regions of the distal, medial and proximal small intestine were fixed in Bouin's solution (Sigma Aldrich) overnight at 4° C., washed and stored in 70% ethanol. Intestinal samples were then paraffin-embedded and cut into 10 um longitudinal sections by Pacific Pathology, Inc (San Diego, CA). Sections were stained using standard procedures. Briefly, slides were deparaffinized, and antigen retrieval was conducted for 1 hr in a 95° C. water bath in 10 mM sodium citrate, pH 6.0 or DAKO solution (Agilent Technologies). […] For 5-HT and CgA staining, numbers of positively-stained puncta were scored blindly, normalized to total area of intestinal mucosa using ImageJ software (NIH) (Schneider et al., Nature Methods 9:671-675 (2012)), and then averaged across biological replicates. For calretinin, cfos and 5HT4 staining, fluorescence intensity for individual stains was quantified and normalized to total area of intestinal submucosa and muscularis externa using ImageJ software. Colocalization was measured and analyzed using the Coloc2 plug-in for Fiji software described in Schindelin et al., Nature Methods 9:676-682 (2012). […]"}, "[8]": {"test_system": "intrinsic afferent primary neurons (IPANs) of the myenteric plexus", "test": "c-fos and calretinin (Calb2) colocalization", "format": "in vivo, mouse", "details": "Sp-colonized mice treated with PCPA", "experimental": "as §2"}, "[9]": {"test": "Tail bleed assay", "format": "in vivo, mouse", "details": "Sp-colonized mice, intrarectal PCPA", "experimental": "Mice were anesthetized with isoflurane and the distal 6 mm portion of the tail was transected using a fresh razor blade. The tail was placed immediately at a 2 cm depth into a 50 mL conical tube containing saline pre-warmed to 37° C. (Liu et al., World J. Exp. Med. 2:30-36 (2012)). Time to bleeding cessation was recorded, with continued recording if re-bleeding occurred within 15 seconds of initial cessation and a maximum total bleed time of 5 minutes. Mice were sacrificed by CO2 immediately after the assay."}, "[10]": {"test_system": "platelets", "test": "Platelet aggregation assay, collagen stimulation, flow cytometry", "format": "in vivo, mouse", "details": "Sp-colonized mice, colonic PCPA injection", "experimental": "Blood samples were collected by cardiac puncture, diluted with a 2× volume of HEPES medium (132 mM NaCl, 6 mM KCl, 1 mM MgSO4, 1.2 mM KH2PO4, 20 mM HEPES, 5 mM glucose; pH 7.4) and centrifuged through PST lithium hepararin vacutainers (Becton Dickinson). Expression of platelet activation markers was measured by flow cytometry (Nieswandt et al., Methods Mol. Biol. 272:255-268 (2004); Ziu et al., J. Mol. Cell. Cardiol. 52:1112-1121 (2012)). Briefly, PRP samples were supplemented with 1 mM CaCl2, and 1×10^6 platelets were stimulated with 10 μg/ml type-1 HORM collagen (Chronolog), and stained with anti-JON/APE, anti-P-selectin-FITC (Emfret Analytics), anti-CD63-PE (Biologend), anti-CD41-FITC (BD Biosciences) and anti-CD9-APC (Abcam) for 15 min at room temperature. Samples were then washed in PBS, fixed with 0.5% formaldehyde and analyzed using a FACS Calibur flow cytometer (BD Biosciences). Platelet aggregation assays were conducted according to methods described in (De Cuyper et al., Blood 121:070-e80 (2013)). Briefly, 4×10^6 platelets were stained separately with CD9-APC or CD9-PE (Abcam) for 15 minutes at room temperature and then washed with HEPES medium. Labeled platelets were mixed 1:1 and incubated for 15 minutes at 37° C., with shaking at 600 rpm. Platelets were then stimulated with 10 μg/ml type-1 collagen for 2 min and fixed in 0.5% formaldehyde for flow cytometry. […]"}, "[11]": {"details": "GF mice, intrarectal injection: deoxycholate 125 mg/kg, α-tocopherol 2.25 mg/kg, PABA 1.37 μg/kg, tyramine 0.137 mg/kg, oleanolate 0.46 mg/kg, vs vehicle"}, "[12]": {"details": "GF mice colonized with hSp, PCPA treatment"}, "[13]": {"details": "Sp-colonized GF mice, PCPA intrarectally twice daily for 3 days"}, "[14]": {"details": "GF mice, oral supplementation in water 1.5 mg/ml, 2 weeks"}}}
{"compound": "C[C@H](CCC(=O)O)[C@H]1CC[C@H]2[C@@H]3[C@H](O)C[C@@H]4C[C@H](O)CC[C@]4(C)[C@H]3C[C@H](O)[C@]12C", "note": "[cholate]", "values": [{"measurement": "5-HT in RIN14B chromaffin cell cultures", "setting": "[1]", "result": "elevate 5-HT"}]}
{"compound": "C[C@H](CCC(=O)O)C[C@H](C)C[C@H](C)C(=O)/C=C(\\O)[C@H](C)C[C@H](C)C/C=C/[C@@H](C)[C@@H](O)[C@@H](C)[C@@H](O)C[C@@H]1CC[C@@](C)([C@H]2CC[C@@](C)([C@@H](C)O)O2)O1", "note": "[ionomycin, reference compound]", "values": [{"measurement": "5-HT released from RIN14B cells", "setting": "[1]; colonic luminal filtrate 1 hr at 37° C., or 15 uM ionomycin, relative to vehicle-treated controls", "result": "stimulates 5-HT release"}, {"measurement": "TPH1 expression in RIN14B cells", "setting": "[2]", "result": "no effect on TPH1 expression"}]}
{"compound": "CC1(C)CC[C@]2(C(=O)O)CC[C@]3(C)C(=CC[C@@H]4[C@@]5(C)CC[C@H](O)C(C)(C)[C@@H]5CC[C@]43C)[C@@H]2C1", "note": "[oleanolate]", "values": [{"measurement": "colon 5-HT", "setting": "[3]; [11]", "result": "no statistically significant effect"}, {"measurement": "serum 5-HT", "setting": "[4]; [11]", "result": "no statistically significant effect"}]}
{"compound": "N[C@@H](Cc1ccc(Cl)cc1)C(=O)O", "note": "(racemic) [PCPA, parachlorophenylalanine]", "values": [{"measurement": "colon 5-HT", "setting": "[3]; [12]", "result": "blocking increases"}, {"measurement": "colon 5-HT levels", "setting": "[3]; [13]", "result": "sufficiently blocks the ability of Sp to elevate"}, {"measurement": "serum 5-HT", "setting": "[4]; [12]", "result": "blocking increases"}, {"measurement": "serum 5-HT levels", "setting": "[4]; [13]", "result": "sufficiently blocks the ability of Sp to elevate"}, {"measurement": "colonic TPH1 expression", "setting": "[5]; Sp-colonized mice, PCPA intrarectally", "result": "compensatory increase in colonic TPH1"}, {"measurement": "colonic SLC6A4 expression", "setting": "[6]", "result": "decrease in SLC6A4"}, {"measurement": "5-HT staining in colonic ECs", "setting": "[7]; [12]", "result": "blocking increases"}, {"measurement": "5-HT staining in ECs", "setting": "[7]; [13]", "result": "sufficiently blocks"}, {"measurement": "IPAN activation", "setting": "[8]", "result": "decreases IPAN activation"}, {"measurement": "Sp effect on bleeding time", "setting": "[9]", "result": "attenuated"}, {"measurement": "Sp effect on platelet aggregation", "setting": "[10]", "result": "attenuated"}]}
{"compound": "Bacteroides fragilis", "values": [{"measurement": "serum 5-HT levels", "setting": "[4]; GF mice colonized, monoassociated or conventionalized, compared with GF and SPF controls", "result": "deficits in serum 5-HT that are comparable to those seen in GF mice"}]}
{"compound": "N[C@@H](Cc1c[nH]c2ccc(O)cc12)C(=O)O", "note": "[5-HTP, 5-hydroxytryptophan]", "values": [{"measurement": "colon 5-HT", "setting": "[3]; [14]", "result": "sufficiently ameliorates deficits"}, {"measurement": "serum 5-HT", "setting": "[4]; [14]", "result": "sufficiently ameliorates deficits"}]}
{"compound": "CCC(=O)O", "note": "[propionate]", "values": [{"measurement": "5-HT in RIN14B chromaffin cell cultures", "setting": "[1]", "result": "elevate 5-HT"}]}
{"compound": "Nc1ccc(C(=O)O)cc1", "note": "[PABA, p-aminobenzoate]", "values": [{"measurement": "colon 5-HT", "setting": "[3]; [11]", "result": "Increases"}, {"measurement": "serum 5-HT", "setting": "[4]; [11]", "result": "Increases"}, {"measurement": "5-HT in RIN14B chromaffin cell cultures", "setting": "[1]", "result": "elevate 5-HT"}]}
{"compound": "NCCc1ccc(O)cc1", "note": "[tyramine]", "values": [{"measurement": "colon 5-HT", "setting": "[3]; [11]", "result": "Increases"}, {"measurement": "serum 5-HT", "setting": "[4]; [11]", "result": "Increases"}, {"measurement": "5-HT in RIN14B chromaffin cell cultures", "setting": "[1]", "result": "elevate 5-HT"}]}
{"compound": "Cc1c(C)c2c(c(C)c1O)CC[C@@](C)(CCC[C@H](C)CCC[C@H](C)CCCC(C)C)O2", "note": "[α-tocopherol]", "values": [{"measurement": "colon 5-HT", "setting": "[3]; [11]", "result": "Increases"}, {"measurement": "effects of a single rectal injection on raising colon 5-HT levels", "setting": "[3]; GF mice", "result": "weak and transient"}, {"measurement": "serum 5-HT", "setting": "[4]; [11]", "result": "Increases"}, {"measurement": "5-HT in RIN14B chromaffin cell cultures", "setting": "[1]", "result": "elevate 5-HT"}]}
{"compound": "N[C@@H](Cc1c[nH]c2ccccc12)C(=O)O", "note": "[Trp, tryptophan]", "values": [{"measurement": "colon 5-HT", "setting": "[3]; [14]", "result": "no restorative effect"}, {"measurement": "serum 5-HT", "setting": "[4]; [14]", "result": "no restorative effect"}]}
{"compound": "deoxycholate", "values": [{"measurement": "colon 5-HT", "setting": "[3]; [11]", "result": "sufficiently increases"}, {"measurement": "effects of a single rectal injection on raising colon 5-HT levels", "setting": "[3]; GF mice", "result": "weak and transient"}, {"measurement": "serum 5-HT", "setting": "[4]; [11]", "result": "sufficiently increases"}, {"measurement": "colonic TPH1 expression", "setting": "[5]; GF mice, intrarectal deoxycholate 125 mg/kg, 1 hr post injection", "result": "elevations in colonic TPH1 expression"}, {"measurement": "5-HT in RIN14B chromaffin cell cultures", "setting": "[1]", "result": "elevate 5-HT"}]}
